In US20100204114A1, “USE OF A GALANIN PEPTIDE AS A THERAPEUTIC AGENT” (priority 2007, published 2010):
Where no end group is shown, it is not given here.

Experiments:
[1] = test system: HIV-1IIIB; assay: HIV-1 antiviral assay in CEM-SS cells (MTS readout); assay type: cell-based
[2] = test system: HCMV strain AD169; assay: HCMV plaque formation assay in MRC-5 cells; settings: for inhibition of HCMV plaque formation as compared to the virus control: 10 micrograms per ml, 7-10 days
[3] = test system: HUVEC; assay: Endothelial tube formation assay; assay type: cell-based, human; settings: 10 micrograms per ml, 20 hours
[4] = test system: Primary Human endothelial cells (HUVEC); assay: Endothelial cell migration assay; assay type: cell-based; settings: 10 micrograms per ml, 22 hours
[5] = test system: spleen cells of Ovalbumin-immunized Balb/c mice; assay: Th1/Th2 cytokine profiling assay (Ovalbumin-restimulated spleen cells, CBA kit); assay type: cell-based, mouse; settings: 10 micrograms per ml; Ovalbumin restimulation; 72 hours
Text: The Balb/c mice (originated in 1923, it is a popular strain and is used in many different research disciplines. […] On day 50, spleens of the mice were harvested (3 weeks after last boost with Ovalbumin). […] This kit can be used to measure Interleukin-2 (IL-2), Interleukin-4 (IL-4), Interleukin-5 (IL-5), Interferon-γ (IFN-γ), and Tumor Necrosis Factor-α (TNF-α) protein levels in a single sample. The kit performance has been optimized for analysis of physiologically relevant concentrations ([…] levels) of specific cytokine proteins in tissue culture supernatants and serum samples.

[6] = test system: hepatitis B virus (HBV) ayw strain in HepG2-2.2.15 cells; assay: HBV experimental assay system, secreted HBV DNA by TaqMan PCR; assay type: cell-based; settings: 10 micrograms per ml, six days
Text: HepG2-2.2.15 is a stable cell line containing the hepatitis B virus (HBV) ayw strain genome (ATCC Cat. No. CRL-11997). Antiviral compounds blocking any late step of viral replication such as transcription, translation, pregenome encapsidation, reverse transcription, particle assembly and release can be identified and characterized using this cell line. In this assay, an active compound will reduce the production of secreted HBV from cells, measured by utilizing real time quantitative PCR (TaqMan) assay to directly and accurately measure HBV DNA copies.
HepG2-2.2.15 cells were plated in 96-well microtiter plates. After 16-24 hours the confluent monolayer of HepG2-2.2.15 cells was washed and the medium was replaced with complete medium containing test peptides—10 micrograms per ml—in duplicate. […] Six days following the initial administration of the peptides, the cell culture supernatants was collected, treated with pronase and DNAse and then used in a real-time quantitative TaqMan PCR assay. The PCR-amplified HBV DNA was detected in real-time by monitoring increases in fluorescence signals that result from the exonucleolytic degradation of a quenched fluorescence probe molecule that hybridizes to the amplified HBV DNA. […] Antiviral activity was calculated from the reduction in HBV DNA levels (% virus control). […]

| Molecule | antiviral activity of positive control compounds (HIV-1) [1] | antiviral activity of positive control compound (HCMV) ([2]; positive control) | inhibition of the tube formation of endothelial cells [3] [%] | inhibition of HCMV plaque formation as compared to the virus control [2] | inhibition of the migration of human endothelial cells [4] | IFNγ spleen cells; TH1 response (% of control) [5] | IL-2 spleen cells (% of control) [5] | IL-4 spleen cells; TH2 response (% of control) [5] | IL-5 spleen cells; TH2 response (% of control) [5] | TNF-a spleen cells; TH1 response (% of control) [5] | inhibition of HBV replication as compared to the virus control infection [6] |
| --- | --- | --- | --- | --- | --- | --- | --- | --- | --- | --- | --- |
| Cc1cn([C@H]2C[C@H](N=[N+]=[N-])[C@@H](CO)O2)c(=O)[nH]c1=O [AZT] | expected levels of antiviral activity | – | – | – | – | – | – | – | – | – | – |
| Nc1nc(O)c2ncn(COC(CO)CO)c2n1 [Ganciclovir, reference compound] | – | expected levels of antiviral activity | – | – | – | – | – | – | – | – | – |
| CC(C)(C)NC(=O)[C@@H]1CN(Cc2cccnc2)CCN1C[C@@H](O)C[C@@H](Cc1ccccc1)C(=O)N[C@H]1c2ccccc2C[C@H]1O [indinavir] | expected levels of antiviral activity | – | – | – | – | – | – | – | – | – | – |
| Gly-Trp-Thr-Leu-Asn-Ser-Ala-Gly-Tyr-Leu-Leu-Gly-Pro-His-Ala-Val-Gly-Asn-His-Arg-Ser-Phe-Ser-Asp-Lys-Asn-Gly-Leu-Thr-Ser-OH [peptide 1] | – | – | 11 | did not inhibit | 29% | 144.1 % of control | 149.6 % of control | 115.3 % of control | 78.8 % of control | 118.8 % of control | no effect |
| Ile-Tyr-Leu-Gly-Gly-Pro-Phe-Ser-Pro-Asn-Val-Leu-OH (IYLGGPFSPNVL-OH) [peptide 2] | – | – | 29 | did not inhibit | did not inhibit | 102.8 % of control | 150.7 % of control | 182.0 % of control | 73.5 % of control | 114.1 % of control | 34.1% |
